In patent US8791132B2, “Compounds and methods for treatment of hypertension” (Medivation Technologies, Inc., priority 2011, dated 2014):

Assays:
[1] = molecular target: T1, human recombinant adrenergic α2B receptor (Homo sapiens, UniProt P18089); assay: Radioligand binding, adrenergic α2B ([3H]Rauwolscine); details: for Percentage inhibition of ligand binding, Adrenergic α2B (0.03 μM): compound at 0.03 μM; for Percentage inhibition of ligand binding, Adrenergic α2B (0.03 μM) / inhibition at 0.03 µM / inhibition at 0.1 µM: [3H]Rauwolscine, repeat datapoints each shown; for Ki: read-out: Ki α2B; for inhibition at 0.03 µM: read-out: Percentage inhibition of ligand binding, Adrenergic α2B (0.03 μM), compound at 0.03 μM; for inhibition at 0.1 µM: read-out: Percentage inhibition of ligand binding, Adrenergic α2B (0.1 μM), compound at 0.1 μM
T1 construct: expressed in transfected cells; host or cells: CHO-K1
T1 sequence (P18089 1-450): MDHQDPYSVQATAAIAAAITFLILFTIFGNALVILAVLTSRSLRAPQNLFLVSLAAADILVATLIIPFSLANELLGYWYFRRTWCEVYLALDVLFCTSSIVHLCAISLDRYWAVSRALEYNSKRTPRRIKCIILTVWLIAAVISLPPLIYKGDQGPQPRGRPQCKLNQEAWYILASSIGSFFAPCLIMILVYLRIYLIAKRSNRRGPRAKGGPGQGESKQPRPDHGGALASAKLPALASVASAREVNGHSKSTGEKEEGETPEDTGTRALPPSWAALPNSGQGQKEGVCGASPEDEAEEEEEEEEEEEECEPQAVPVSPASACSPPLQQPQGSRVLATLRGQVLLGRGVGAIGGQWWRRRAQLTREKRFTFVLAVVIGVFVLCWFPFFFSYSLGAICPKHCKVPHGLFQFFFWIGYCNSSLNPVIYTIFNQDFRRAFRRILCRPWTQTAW
Outline: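 Receptor expressed in CHO-K1 cells, assayed in 50 mM Tris-HCl pH 7.4 with 12.5 mM MgCl2, 1 mM EDTA and 0.2% BSA. Compounds were incubated with 2.5 nM [3H]Rauwolscine for 60 min at 25° C; 10 μM Prazosin defined non-specific binding. Filter counting gave percent inhibition of specific binding.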

[2] = molecular target: T2, rat adrenergic α1B receptor (Rattus norvegicus, UniProt P15823); assay: Radioligand binding, adrenergic α1B ([3H]Prazosin); details: [3H]Prazosin, repeat datapoints each shown; for inhibition at 0.1 µM: read-out: Percentage inhibition of ligand binding, Adrenergic α1B (0.1 μM), compound at 0.1 μM; for Percentage inhibition of ligand binding, Adrenergic α1B (0.1 μM): compound at 0.1 μM; for inhibition at 0.03 µM: read-out: Percentage inhibition of ligand binding, Adrenergic α1B (0.03 μM), compound at 0.03 μM
T2 construct: rat adrenergic α1B receptor obtained from Wistar Rat liver; from tissue; host or cells: Wistar rat liver
T2 sequence (P15823 1-515): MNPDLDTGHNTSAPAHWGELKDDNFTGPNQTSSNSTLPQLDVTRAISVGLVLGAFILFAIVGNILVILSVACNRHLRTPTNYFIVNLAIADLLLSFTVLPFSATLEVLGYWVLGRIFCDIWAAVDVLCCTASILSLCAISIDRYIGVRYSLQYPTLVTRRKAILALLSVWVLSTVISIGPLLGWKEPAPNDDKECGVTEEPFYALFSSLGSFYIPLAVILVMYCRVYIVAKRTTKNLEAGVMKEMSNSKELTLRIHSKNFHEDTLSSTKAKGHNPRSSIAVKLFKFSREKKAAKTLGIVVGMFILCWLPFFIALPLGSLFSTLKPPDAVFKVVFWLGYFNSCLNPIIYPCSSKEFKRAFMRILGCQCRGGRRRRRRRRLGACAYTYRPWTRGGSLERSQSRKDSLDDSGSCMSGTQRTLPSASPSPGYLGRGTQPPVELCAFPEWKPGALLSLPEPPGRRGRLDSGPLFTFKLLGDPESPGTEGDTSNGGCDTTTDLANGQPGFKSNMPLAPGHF
Outline: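 Filter binding with Wistar rat liver α1B preparation: test compound plus 0.25 nM [3H]prazosin, 1 h at 25° C in modified Tris-HCl buffer pH 7.4.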

[3] = molecular target: T3, human recombinant adrenergic α2A receptor (Homo sapiens, UniProt P08913); assay: Radioligand binding, adrenergic α2A ([3H]MK-912); details: for inhibition at 0.1 µM: read-out: Percentage inhibition of ligand binding, Adrenergic α2A (0.1 μM), compound at 0.1 μM; for Percentage inhibition of ligand binding, Adrenergic α2A (0.1 μM): compound at 0.1 μM
T3 construct: expressed in transfected cells; host or cells: insect Sf9 cells
T3 sequence (P08913 1-465): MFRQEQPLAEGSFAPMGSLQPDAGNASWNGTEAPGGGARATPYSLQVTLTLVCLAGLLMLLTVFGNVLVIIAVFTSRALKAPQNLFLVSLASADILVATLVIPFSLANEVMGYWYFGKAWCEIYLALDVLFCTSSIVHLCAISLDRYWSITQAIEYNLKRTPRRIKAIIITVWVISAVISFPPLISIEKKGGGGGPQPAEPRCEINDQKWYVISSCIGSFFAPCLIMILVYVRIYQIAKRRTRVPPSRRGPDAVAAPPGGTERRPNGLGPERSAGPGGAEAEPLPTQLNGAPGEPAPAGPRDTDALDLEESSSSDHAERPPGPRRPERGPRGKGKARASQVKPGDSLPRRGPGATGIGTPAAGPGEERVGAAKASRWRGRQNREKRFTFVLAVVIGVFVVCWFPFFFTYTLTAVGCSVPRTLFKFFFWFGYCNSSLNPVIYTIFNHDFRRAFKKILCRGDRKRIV
Outline: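 Receptor expressed in insect Sf9 cells, assayed in 50 mM Tris-HCl pH 7.4 with 12.5 mM MgCl2 and 2 mM EDTA. Compounds incubated with 1 nM [3H]MK-912 for 60 min at 25 °C; nonspecific binding defined with 10 μM WB-4101. Filter-bound radioactivity counted; values are percent inhibition of specific binding.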

[4] = [3H]MK-912, repeat datapoints each shown

Cc1ccc2c(c1)c1c(n2CC(O)c2cnn(C)c2)CCN(C)C1 (single isomer, unassigned) [131b, 2-(1,2,3,4-tetrahydro-2,8-dimethylpyrido[4,3-b]indol-5-yl)-1-(1-methyl-1H-pyrazol-4-yl)ethanol]
Percentage inhibition of ligand binding, Adrenergic α2B (0.03 μM) [1]: 63%
Ki [1]: 7.95 nM
inhibition at 0.03 µM [1]: 53%
inhibition at 0.1 µM [1]: 90%
inhibition at 0.1 µM [2]: 36%
inhibition at 0.1 µM [3, 4]: 11%

Cc1ccc2c(c1)c1c(n2CC(O)c2ccncc2C)CCN(C)C1 (single isomer, unassigned) [133b]
Percentage inhibition of ligand binding, Adrenergic α2B (0.03 μM) [1]: 88%
Ki [1]: 2.42 nM
inhibition at 0.03 µM [1]: 87%
inhibition at 0.1 µM [1]: 94%
Percentage inhibition of ligand binding, Adrenergic α1B (0.1 μM) [2]: 42%
inhibition at 0.03 µM [2]: 16%
inhibition at 0.1 µM [2]: 40%
Ki [3]: 59.5 nM
Percentage inhibition of ligand binding, Adrenergic α2A (0.1 μM) [3, 4]: 39%
inhibition at 0.03 µM ([3]; read-out: Percentage inhibition of ligand binding, Adrenergic α2A (0.03 μM), compound at 0.03 μM, [3H]MK-912, repeat datapoints each shown): 27%
inhibition at 0.1 µM [3, 4]: 34%

Cc1cnc2c(c1)c1c(n2CCc2cccnc2)CCN2CCCC12 (single isomer, unassigned) [134b, 9-methyl-6-(2-pyridin-3-yl-ethyl)-2,3,4,5,6,10c-hexahydro-1H-3a,6,7-triaza-cyclopenta[c]fluorene]
Percentage inhibition of ligand binding, Adrenergic α2B (0.03 μM) [1]: 103%
Ki [1]: 0.43 nM
inhibition at 0.03 µM [1]: 102%
Percentage inhibition of ligand binding, Adrenergic α1B (0.1 μM) [2]: 95%
inhibition at 0.03 µM [2]: 78%
inhibition at 0.1 µM [2]: 93%
Ki [3]: 102 nM
Percentage inhibition of ligand binding, Adrenergic α2A (0.1 μM) [3, 4]: 29%
inhibition at 0.1 µM [3, 4]: 23%

Cc1ccc2c(c1)c1c(n2CC(O)c2ccncc2Cl)CCN(C)C1 (single isomer, unassigned) [135a]
Percentage inhibition of ligand binding, Adrenergic α2B (0.03 μM) [1]: 42%
Percentage inhibition of ligand binding, Adrenergic α1B (0.1 μM) [2]: 60%
Percentage inhibition of ligand binding, Adrenergic α2A (0.1 μM) [3, 4]: 4%

Cc1ccc2c(c1)c1c(n2CC(O)c2ccncc2Cl)CCN(C)C1 (single isomer, unassigned) [135b]
Percentage inhibition of ligand binding, Adrenergic α2B (0.03 μM) [1]: 68%
Percentage inhibition of ligand binding, Adrenergic α1B (0.1 μM) [2]: 30%
Percentage inhibition of ligand binding, Adrenergic α2A (0.1 μM) [3, 4]: 22%

Cc1cnc2c(c1)c1c(n2CC(O)c2ccc(F)cc2)CCN(C)C1 (single isomer, unassigned) [136a]
Percentage inhibition of ligand binding, Adrenergic α2B (0.03 μM) [1]: 34%
Percentage inhibition of ligand binding, Adrenergic α1B (0.1 μM) [2]: 54%
inhibition at 0.1 µM [3, 4]: 16%

Cc1ccc(CCn2c3c(c4cc(Cl)cnc42)C2CCCN2CC3)cn1 (single isomer, unassigned) [137b]
Percentage inhibition of ligand binding, Adrenergic α2B (0.03 μM) [1]: 30%
Percentage inhibition of ligand binding, Adrenergic α1B (0.1 μM) [2]: 23%
Percentage inhibition of ligand binding, Adrenergic α2A (0.1 μM) [3, 4]: 6%

Cc1ccc2c(c1)c1c(n2CC(O)c2ccc(C(N)=O)cc2)CCN(C)C1 (single isomer, unassigned) [139a, 4-[2-(2,8-dimethyl-1,2,3,4-tetrahydro-pyrido[4,3-b]indol-5-yl)-1-hydroxy-ethyl]-benzamide]
Percentage inhibition of ligand binding, Adrenergic α2B (0.03 μM) [1]: 101%
Ki [1]: 2.36 nM
inhibition at 0.03 µM [1]: 88%
inhibition at 0.1 µM [2]: 17%
inhibition at 0.1 µM [3, 4]: 16%

Cc1ccc2c(c1)c1c(n2CC(O)c2ccc(C(N)=O)cc2)CCN(C)C1 (single isomer, unassigned) [139b, 4-[2-(2,8-dimethyl-1,2,3,4-tetrahydro-pyrido[4,3-b]indol-5-yl)-1-hydroxy-ethyl]-benzamide]
Percentage inhibition of ligand binding, Adrenergic α2B (0.03 μM) [1]: 59%
Percentage inhibition of ligand binding, Adrenergic α1B (0.1 μM) [2]: 11%
Percentage inhibition of ligand binding, Adrenergic α2A (0.1 μM) [3, 4]: 6%

Cc1ccc2c(c1)c1c(n2CC(O)c2ccc(C#N)nc2)CCN(C)C1 (single isomer, unassigned) [140a, 5-[2-(2,8-dimethyl-1,2,3,4-tetrahydro-pyrido[4,3-b]indol-5-yl)-1-hydroxy-ethyl]-pyridine-2-carbonitrile]
Percentage inhibition of ligand binding, Adrenergic α2B (0.03 μM) [1]: 76%
Percentage inhibition of ligand binding, Adrenergic α1B (0.1 μM) [2]: 59%
Percentage inhibition of ligand binding, Adrenergic α2A (0.1 μM) [3, 4]: 11%

Cc1ccc2c(c1)c1c(n2CC(O)c2ccc(C#N)nc2)CCN(C)C1 (single isomer, unassigned) [140b, 5-[2-(2,8-dimethyl-1,2,3,4-tetrahydro-pyrido[4,3-b]indol-5-yl)-1-hydroxy-ethyl]-pyridine-2-carbonitrile]
Percentage inhibition of ligand binding, Adrenergic α2B (0.03 μM) [1]: 52%
Percentage inhibition of ligand binding, Adrenergic α1B (0.1 μM) [2]: 18%
Percentage inhibition of ligand binding, Adrenergic α2A (0.1 μM) [3, 4]: 3%

Cc1ccc2c(c1)c1c(n2CC(OC(=O)N(C)C)c2ccncc2)CCN(C)C1 (single isomer, unassigned) [141a, N,N-dimethyl-carbamic acid 2-(2,8-dimethyl-1,2,3,4-tetrahydro-pyrido[4,3-b]indol-5-yl)-1-pyridin-4-yl-ethyl ester]
Percentage inhibition of ligand binding, Adrenergic α2B (0.03 μM) [1]: 70%
Percentage inhibition of ligand binding, Adrenergic α1B (0.1 μM) [2]: 25%
Percentage inhibition of ligand binding, Adrenergic α2A (0.1 μM) [3, 4]: −5%

Cc1ccc2c(c1)c1c(n2CC(OC(=O)N(C)C)c2ccncc2)CCN(C)C1 (single isomer, unassigned) [141b, N,N-dimethyl-carbamic acid 2-(2,8-dimethyl-1,2,3,4-tetrahydro-pyrido[4,3-b]indol-5-yl)-1-pyridin-4-yl-ethyl ester]
Percentage inhibition of ligand binding, Adrenergic α2B (0.03 μM) [1]: 86%
Ki [1]: 3.44 nM
inhibition at 0.03 µM [1]: 79%
inhibition at 0.1 µM [2]: 28%
inhibition at 0.1 µM [3, 4]: 19%

CN1CCc2c(c3cc(Cl)ccc3n2CC(C)(O)c2ccc(C(F)(F)F)nc2)C1 (single isomer, unassigned) [143b]
Percentage inhibition of ligand binding, Adrenergic α2B (0.03 μM) [1]: 49%
Percentage inhibition of ligand binding, Adrenergic α1B (0.1 μM) [2]: 17%
Percentage inhibition of ligand binding, Adrenergic α2A (0.1 μM) [3, 4]: 0%

Cc1ccc2c(c1)c1c(n2CC(C)(OC(=O)C(C)C)c2cccnc2)CCN(C)C1 (single isomer, unassigned) [146a]
Percentage inhibition of ligand binding, Adrenergic α2B (0.03 μM) [1]: 37%
Percentage inhibition of ligand binding, Adrenergic α1B (0.1 μM) [2]: 41%
Percentage inhibition of ligand binding, Adrenergic α2A (0.1 μM) [3, 4]: −1%

Cc1ccc2c(c1)c1c(n2CC(C)(OC(=O)C(C)C)c2cccnc2)CCN(C)C1 (single isomer, unassigned) [146b]
Percentage inhibition of ligand binding, Adrenergic α2B (0.03 μM) [1]: 63%
Percentage inhibition of ligand binding, Adrenergic α1B (0.1 μM) [2]: 11%
Percentage inhibition of ligand binding, Adrenergic α2A (0.1 μM) [3, 4]: 21%
